Assay results reported in the supplement of paper PMC10307832.

Experiments:
Assay in all cases: relative viability (nuclei count vs DMSO), 5 days (fraction); higher = more cells survive
PAC-1 + Olaparib = compound: C=CCc1cccc(/C=N/NC(=O)CN2CCN(Cc3ccccc3)CC2)c1O [PAC-1] + O=C(c1cc(Cc2n[nH]c(=O)c3ccccc23)ccc1F)N1CCN(C(=O)C2CC2)CC1 [Olaparib] (partner 8 µM)
Procedure, shortened: (§1)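 Relative viability is defined as nuclei in treated wells over nuclei in vehicle wells. Duplicate plates were run and medians reported. Lung cancer cell lines in 1536-well plates were dosed by pin tool one day after seeding, with one drug or with a fixed anchor-drug dose plus five library-drug doses (not always all listed) in √10 steps, and nuclei were counted after 5 days.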

PAC-1 + Bortezomib = compound: C=CCc1cccc(/C=N/NC(=O)CN2CCN(Cc3ccccc3)CC2)c1O [PAC-1] + CC(C)C[C@H](NC(=O)[C@H](Cc1ccccc1)NC(=O)c1cnccn1)B(O)O [Bortezomib] (partner 0.002 µM)
Procedure, shortened: as §1

PAC-1 + Pictilisib = compound: C=CCc1cccc(/C=N/NC(=O)CN2CCN(Cc3ccccc3)CC2)c1O [PAC-1] + CS(=O)(=O)N1CCN(Cc2cc3nc(-c4cccc5[nH]ncc45)nc(N4CCOCC4)c3s2)CC1 [Pictilisib] (partner 1 µM)
Procedure, shortened: as §1

Ibrutinib + Tozasertib = compound: C=CC(=O)N1CCC[C@@H](n2nc(-c3ccc(Oc4ccccc4)cc3)c3c(N)ncnc32)C1 [Ibrutinib] + Cc1cc(Nc2cc(N3CCN(C)CC3)nc(Sc3ccc(NC(=O)C4CC4)cc3)n2)n[nH]1 [Tozasertib] (partner 0.1 µM)
Procedure, shortened: as §1

Cell Line	relative viability (PAC-1 + Olaparib; first compound 0.02 µM)	relative viability (PAC-1 + Olaparib; first compound 0.06325 µM)	relative viability (PAC-1 + Olaparib; first compound 0.2 µM)	relative viability (PAC-1 + Olaparib; first compound 2 µM)	relative viability (PAC-1 + Bortezomib; first compound 0.02 µM)	relative viability (PAC-1 + Bortezomib; first compound 0.06325 µM)	relative viability (PAC-1 + Bortezomib; first compound 0.2 µM)	relative viability (PAC-1 + Bortezomib; first compound 2 µM)	relative viability (PAC-1 + Pictilisib; first compound 0.02 µM)	relative viability (PAC-1 + Pictilisib; first compound 0.06325 µM)	relative viability (PAC-1 + Pictilisib; first compound 0.2 µM)	relative viability (PAC-1 + Pictilisib; first compound 2 µM)	relative viability (Ibrutinib + Tozasertib; first compound 0.005 µM)	relative viability (Ibrutinib + Tozasertib; first compound 0.01581 µM)	relative viability (Ibrutinib + Tozasertib; first compound 0.05 µM)	relative viability (Ibrutinib + Tozasertib; first compound 0.1581 µM)	relative viability (Ibrutinib + Tozasertib; first compound 0.5 µM)
NCI-H2085	0.728	0.74	0.74	0.831	1.09	1.1	1.14	1.12	0.446	0.518	0.422	0.485	0.853	0.628	0.623	0.855	0.697
HCC-78	0.8	0.893	0.874	0.827	0.387	0.496	0.434	0.483	0.179	0.196	0.236	0.195	0.577	0.327	0.434	0.494	0.343
NCI-H647	0.616	0.492	0.544	0.236	0.771	0.924	0.765	0.924	0.417		0.417	0.331		0.298	0.39	0.347	0.174
NCI-H1299	0.947	0.933	0.937	0.895	1.02	0.99	0.975	0.993	0.876	0.763	0.815	0.657					
LU99A	0.247	0.282	0.271	0.257	1.1	1.11	1.07	1.05	0.32	0.271	0.313	0.322	0.264	0.279	0.285	0.258	0.278
A549	0.344	0.353	0.285	0.477					0.483	0.511	0.509	0.487					
HARA	0.769	0.65	0.813	1.16	1.08	1.12	0.853	1.11	0.414	0.376	0.323	0.413	0.0994	0.117	0.0863	0.0992	0.096
NCI-H1944	0.389	0.434	0.425	0.402					0.3	0.345	0.323	0.33	0.247	0.217	0.21	0.24	0.198
LCLC-103H	0.771	0.824	0.761	0.745	1.17	1.1	1.1	1.18	0.549	0.612	0.592	0.638	0.493	0.495	0.531	0.527	0.439
NCI-H1792	0.305	0.383	0.0039	0.454	0.982	1.01	0.947	0.896	0.319	0.279	0.287	0.285					
Calu-6	0.546	0.585		0.61	1.07	1.09	1	1.1	0.857	0.82	0.875	0.833					
SW 900		1.07	0.85	0.718											0.663	0.627	0.59
